Common to all, as to test: growth of human tumour cells (NCI), 48 h
The subject of assay [1] is M19-MEL.
The test system of assay [2] is DMS-114.
For assay [3], the system named is SNB-78.
For assay [4], the system named is XF498.
Assay [5] relates to DLD-1.
Assay [6] concerns KM-20L2.
The test system of assay [7] is MDA-N.
Assay [8] has as its system T47D.
Assay [9] concerns RXF 631.

The structures appear in SMILES notation.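 48-hour exposure; five concentrations; linearly interpolated endpoints. At the GI50, growth is halved.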 The source made the active and inactive calls. Rule as the data show it: active = GI50 up to about 1.1 µM and inactive = higher. Bounds are passed on as bounds.

Consider `COCCOCOc1ccc(OCOCCOC)c2c1C(=O)c1ccccc1C2=O`, for which the GI50 in assay [1] was 16.7 µM (inactive); in assay [2], 3.19 µM (inactive); in assay [3], > 63.1 µM (inactive); in assay [4], > 100 µM (inactive); in [5], 26.3 µM (inactive); in assay [6], 32 µM (inactive).
On to `COc1cc2cccc(NC(=O)c3cc(OC)c(OC)c(OC)c3Br)c2cc1OC`, for which the GI50 is 10.2 µM (inactive) in assay [1]; 3.12 µM (inactive) in assay [2]; 17.1 µM (inactive) in [3]; 2.4 µM (inactive) in assay [4]; 24.8 µM (inactive) in assay [5]; 25.7 µM (inactive) in assay [6].
Turning to `COc1cccc(/C=N/NC(N)=O)c1O`, in assay [6], the GI50 was > 100 µM (inactive).
As to `COc1ccc(-c2ccccc2)c2[nH]c3c(c12)CCNC3=O`, the GI50 in [1], in assay [3], in assay [5] and in [6] was > 100 µM (inactive) in each case.
As for `COc1ccc2c(c1)C(=O)Cc1ccccc1CC2`, the GI50 in assay [1], in [2], in assay [3], in assay [4], in assay [5] and in assay [6] was > 100 µM (inactive) in each case.
`C[N+](C)(C)CC(=O)N/N=C/c1oc(-c2c(O)ccc3ccccc23)c(-c2c(O)ccc3ccccc23)c1[N+](=O)[O-]`: the GI50 in [1] is 20.4 µM (inactive); in assay [4] it was 20.6 µM (inactive); in assay [5], 14.1 µM (inactive); in assay [6], 3.1 µM (inactive).
Take `CCc1[nH]nc(C(N)=O)c1/N=N/N(C)C`: the GI50 is > 100 µM (inactive) in assay [7] and 68.4 µM (inactive) in assay [8].
On the same counts, the results for `CN(CCCN1CCCC1)CCCN(C)C(=O)Cc1ccc(Cl)c(Cl)c1` are 4.22 µM (inactive) and 21.2 µM (inactive).
For the molecule `COc1ccc(-c2cc(O)c3cc4c(cc3n2)OCO4)cc1OC`, the GI50 in assay [1], in assay [2], in assay [3], in assay [4], in assay [5] and in [6] was > 100 µM (inactive) each time.
On to `Cn1nc(-c2ccccc2NC(=O)C(F)(F)F)c(=O)n(C)c1=S`, for which the GI50 was 18.9 µM (inactive) in [1], 14 µM (inactive) in assay [2], 18.9 µM (inactive) in [4] and > 100 µM (inactive) in [5].
Take `CC(=O)Nc1ccc(/C=C(\NC(=O)c2ccccc2)c2nc3ccc4c(c3[nH]2)C(=O)c2ccccc2C4=O)cc1`: the GI50 is 78.3 µM (inactive) in assay [1]; 17.9 µM (inactive) in [2]; 58.9 µM (inactive) in [3]; 84.1 µM (inactive) in [4]; 13.8 µM (inactive) in assay [5]; 46.5 µM (inactive) in assay [6].
`CC(C)(C)OC(=O)N1C(OP(=O)(Oc2ccccc2)Oc2ccccc2)=CSc2ccccc21`: the results for the GI50 in [7] and in assay [8] were 34 µM (inactive) and 27.4 µM (inactive), respectively.
With `Cc1c(C(=O)OCc2ccccc2)[n+]([O-])c2cc(Cl)c(Cl)cc2[n+]1[O-]`, the GI50 in [7] was 20.6 µM (inactive); in [8], 5.48 µM (inactive).
On to `CN1C2(c3ccccc3)C(C(=O)c3ccccc3)=C(C(=O)c3ccccc3)C1(c1ccccc1)c1c(-c3ccccc3)sc(-c3ccccc3)c12`, for which the GI50 in [1], in assay [2], in [3], in [5] and in [6] was > 100 µM (inactive) throughout.
With `CC1=C(C)CC2(SC1)C(=O)c1ccccc1C2=O`, the GI50 in assay [9], in assay [1], in assay [2], in assay [3], in assay [5] and in assay [6] was > 100 µM (inactive) each time.
Consider `Cc1ccccc1NC(=O)C(=O)CC(=O)c1c(C)[n+]([O-])c2ccccc2[n+]1[O-]`, for which the GI50 in assay [1], in assay [2], in [3], in assay [5] and in [6] was > 100 µM (inactive) each time.
On to `C[N+]1([O-])C2CCC1CC(OC(=O)C(CO)c1ccccc1)C2` (configuration not stated), for which the GI50 in assay [7] and in [8] was > 100 µM (inactive) in each case.
Take `CCCCCCCCCCCCCCC1OC(=O)c2ccccc21` (configuration not stated): the GI50 in [9] was > 100 µM (inactive); in [1], 85.7 µM (inactive); in [2], 24 µM (inactive); in assay [3] it was > 100 µM (inactive); in [5], 71.4 µM (inactive); in assay [6] it was 42.9 µM (inactive).
As for `O=C(c1cc(Br)ccc1O)c1cc(Br)ccc1O`, the GI50 in [7] was 14.3 µM (inactive); in assay [8], 14.2 µM (inactive).
For `N#Cc1c(-c2ccccc2)cc(-c2cccs2)c(C#N)c1N`, the GI50 in assay [1] was > 10 µM (inactive); in assay [2] it was > 10 µM (inactive); in [3] it was > 100 µM (inactive); in [4] it was > 100 µM (inactive); in assay [5], > 100 µM (inactive); in assay [6] it was > 100 µM (inactive).
For the molecule `COc1ccc(/C=N/n2c(-c3ccccc3)n[nH]c2=O)c(OC)c1`, the GI50 in [7] is > 100 µM (inactive); in assay [8], 50 µM (inactive).
The corresponding values for `Cc1cc2oc(=O)c(Cl)c(Cl)c2c(C)c1Cl` are 2.92 µM (inactive) and 5.46 µM (inactive).
The corresponding values for `N=C(N)SC(c1ccccc1)c1ccccc1` are 13.6 µM (inactive) and 6.32 µM (inactive).
On the same counts, the results for `O=c1c2cccnc2[nH]c2ccc3scnc3c12` are > 10 µM (inactive) and > 10 µM (inactive).
As to `O=C1CCC2c3ccccc3NCN12` (configuration not stated), the GI50 in assay [7] and in assay [8] was > 100 µM (inactive) throughout.
Take `CCn1c(SCC(=O)NNC(=S)Nc2ccc(F)cc2)nc2ccccc2c1=O`: the results for the GI50 in assay [7] and in [8] were > 100 µM (inactive) and 57.7 µM (inactive), respectively.
On the same counts, the results for `N[C@H](C(=O)O)[C@@H]1CC(Br)=NO1` are 8.41 µM (inactive) and > 34.1 µM (inactive).
The corresponding values for `C/C(=N\Nc1nc2ccccc2s1)c1ccncn1` are 9.44 µM (inactive) and 0.612 µM (active).
On to `COc1ccc(NC(=O)CSc2nnc(-c3ccc(NC(C)=O)cc3)o2)cc1`, for which the GI50 in assay [1] is 21 µM (inactive); in [2] it was 5.6 µM (inactive); in assay [3], 13.8 µM (inactive); in assay [5], 19.3 µM (inactive); in assay [6], 19.5 µM (inactive).
Take `C/C=C/C(C#N)(/C=C/c1ccccc1)OP1(=O)OC(c2ccccc2)C(C)N1C` (configuration not stated): the results for the GI50 in [7] and in assay [8] were 20.3 µM (inactive) and 20.7 µM (inactive), respectively.
On the same counts, the results for `O=C1C2CCCCC2C(=O)N1n1c(Cc2ccccc2)n[nH]c1=O` (configuration not stated) are > 100 µM (inactive) and > 100 µM (inactive).
For the molecule `COc1ccccc1CCc1cc(OC)c(OC)c(OC)c1`, the GI50 was 48.3 µM (inactive) in assay [1]; 41.6 µM (inactive) in [2]; 43 µM (inactive) in [3]; 35.9 µM (inactive) in [4]; 61.5 µM (inactive) in [5]; 55.8 µM (inactive) in assay [6].
`OC1C2CCC1C1C3C=CC(C3)C21` (configuration not stated): the GI50 was > 100 µM (inactive) in assay [1]; 59.6 µM (inactive) in assay [2]; > 100 µM (inactive) in [3]; > 100 µM (inactive) in assay [4]; > 100 µM (inactive) in [5]; 77.3 µM (inactive) in [6].
Regarding `CC(=O)OCCOCNC(=S)N/N=C(\C)c1cccs1`, the GI50 in [1], in assay [2], in [3], in [4], in assay [5] and in assay [6] was > 100 µM (inactive) in each case.
`O=C1Cc2c(-c3cccs3)cc(-c3ccccc3)nc2-c2ccccc2N1`: the values for the GI50 in assay [7] and in [8] were 21.8 µM (inactive) and 26.4 µM (inactive), respectively.
For `Cc1ccc(-n2c(C)nc3c2C(=O)c2ccccc2C3=O)cc1`, the GI50 in [1] was 12 µM (inactive); in [3] it was > 100 µM (inactive); in [4], 50.5 µM (inactive); in assay [5] it was 9.33 µM (inactive); in assay [6] it was 18.3 µM (inactive).
Regarding `O=C(N/N=C/c1ccc(Br)cc1)N/N=C/c1ccc(Br)cc1`, the GI50 in assay [7] is 10.2 µM (inactive); in assay [8] it was 4.38 µM (inactive).
In the case of `CS(=O)(=O)CC1=Nc2nnc(CCCCCCCc3nnc4n3C(=O)C(CS(C)(=O)=O)=N4)n2C1=O`, the GI50 in [1], in assay [2], in assay [4] and in assay [6] was > 100 µM (inactive) each time.
Regarding `O=[N+]([O-])c1ccc(-c2cnc3ccccn23)cc1`, the GI50 in assay [1] was > 100 µM (inactive); in assay [2] it was 48.6 µM (inactive); in assay [3], > 100 µM (inactive); in assay [4], > 100 µM (inactive); in assay [6], > 100 µM (inactive).
With `COC(=O)/C(=C/c1ccc(OC)cc1)c1cc(OC)c(OC)c(OC)c1`, the GI50 is 3.46 µM (inactive) in assay [1]; 2.96 µM (inactive) in assay [2]; 5.02 µM (inactive) in [3]; 0.133 µM (active) in [7]; 4.89 µM (inactive) in assay [4]; 2.61 µM (inactive) in assay [5]. Also, the GI50 in assay [8] was 7.13 µM (inactive); in assay [6], 1.12 µM (inactive).
For `COC(=O)C(/C(=N/N)C(=O)Nc1cc(Cl)c(Cl)cc1Cl)c1nc2ccc(Cl)cc2nc1O` (configuration not stated), the GI50 in assay [7] and in assay [8] was > 100 µM (inactive) throughout.
As for `OC(O)(C(F)(F)F)C(F)(F)F`, the GI50 in assay [7] and in [8] was > 100 µM (inactive) in each case.
Turning to `CN(C)c1ccc(/C=C(\NC(=O)c2ccccc2)C(=O)Nc2cccc(C(=O)NCCCO)c2)cc1`, the GI50 in assay [7] and in [8] was > 100 µM (inactive) in each case.
Turning to `c1ccc2c(c1)CC1COc3ccccc3C1O2` (configuration not stated), the results for the GI50 in assay [7] and in assay [8] were 38 µM (inactive) and 51.4 µM (inactive), respectively.
The corresponding values for `CCOC(=O)c1c(N)sc2c1C(C(=O)OCC)CC2` (configuration not stated) are > 100 µM (inactive) and 18.2 µM (inactive).

Source of the values: ChEMBL document CHEMBL1201862, “PubChem BioAssay data set” (2004).
